Results taken from patent US8017124B2, “Use of DMBT1 for capturing sulphate and phosphate group exposing agents” (priority 2004, dated 2011).
Read-outs that look alike come from different tables or passages of the source.

Legend:
[1] = target: T1, DMBT1 (Homo sapiens, UniProt Q9UGM3); assay: Binding of DMBT1/rDMBT1 to immobilized candidate substances (ELISA); details: substance immobilized; DMBT1 or rDMBT1 10 μg/ml
T1 construct: was obtained from parotid saliva of healthy volunteer donors collected with Lashley cups; from tissue; host or cells: parotid saliva of healthy volunteer donors, purified to about 95% homogeneity
T1 sequence (Q9UGM3 20-2413): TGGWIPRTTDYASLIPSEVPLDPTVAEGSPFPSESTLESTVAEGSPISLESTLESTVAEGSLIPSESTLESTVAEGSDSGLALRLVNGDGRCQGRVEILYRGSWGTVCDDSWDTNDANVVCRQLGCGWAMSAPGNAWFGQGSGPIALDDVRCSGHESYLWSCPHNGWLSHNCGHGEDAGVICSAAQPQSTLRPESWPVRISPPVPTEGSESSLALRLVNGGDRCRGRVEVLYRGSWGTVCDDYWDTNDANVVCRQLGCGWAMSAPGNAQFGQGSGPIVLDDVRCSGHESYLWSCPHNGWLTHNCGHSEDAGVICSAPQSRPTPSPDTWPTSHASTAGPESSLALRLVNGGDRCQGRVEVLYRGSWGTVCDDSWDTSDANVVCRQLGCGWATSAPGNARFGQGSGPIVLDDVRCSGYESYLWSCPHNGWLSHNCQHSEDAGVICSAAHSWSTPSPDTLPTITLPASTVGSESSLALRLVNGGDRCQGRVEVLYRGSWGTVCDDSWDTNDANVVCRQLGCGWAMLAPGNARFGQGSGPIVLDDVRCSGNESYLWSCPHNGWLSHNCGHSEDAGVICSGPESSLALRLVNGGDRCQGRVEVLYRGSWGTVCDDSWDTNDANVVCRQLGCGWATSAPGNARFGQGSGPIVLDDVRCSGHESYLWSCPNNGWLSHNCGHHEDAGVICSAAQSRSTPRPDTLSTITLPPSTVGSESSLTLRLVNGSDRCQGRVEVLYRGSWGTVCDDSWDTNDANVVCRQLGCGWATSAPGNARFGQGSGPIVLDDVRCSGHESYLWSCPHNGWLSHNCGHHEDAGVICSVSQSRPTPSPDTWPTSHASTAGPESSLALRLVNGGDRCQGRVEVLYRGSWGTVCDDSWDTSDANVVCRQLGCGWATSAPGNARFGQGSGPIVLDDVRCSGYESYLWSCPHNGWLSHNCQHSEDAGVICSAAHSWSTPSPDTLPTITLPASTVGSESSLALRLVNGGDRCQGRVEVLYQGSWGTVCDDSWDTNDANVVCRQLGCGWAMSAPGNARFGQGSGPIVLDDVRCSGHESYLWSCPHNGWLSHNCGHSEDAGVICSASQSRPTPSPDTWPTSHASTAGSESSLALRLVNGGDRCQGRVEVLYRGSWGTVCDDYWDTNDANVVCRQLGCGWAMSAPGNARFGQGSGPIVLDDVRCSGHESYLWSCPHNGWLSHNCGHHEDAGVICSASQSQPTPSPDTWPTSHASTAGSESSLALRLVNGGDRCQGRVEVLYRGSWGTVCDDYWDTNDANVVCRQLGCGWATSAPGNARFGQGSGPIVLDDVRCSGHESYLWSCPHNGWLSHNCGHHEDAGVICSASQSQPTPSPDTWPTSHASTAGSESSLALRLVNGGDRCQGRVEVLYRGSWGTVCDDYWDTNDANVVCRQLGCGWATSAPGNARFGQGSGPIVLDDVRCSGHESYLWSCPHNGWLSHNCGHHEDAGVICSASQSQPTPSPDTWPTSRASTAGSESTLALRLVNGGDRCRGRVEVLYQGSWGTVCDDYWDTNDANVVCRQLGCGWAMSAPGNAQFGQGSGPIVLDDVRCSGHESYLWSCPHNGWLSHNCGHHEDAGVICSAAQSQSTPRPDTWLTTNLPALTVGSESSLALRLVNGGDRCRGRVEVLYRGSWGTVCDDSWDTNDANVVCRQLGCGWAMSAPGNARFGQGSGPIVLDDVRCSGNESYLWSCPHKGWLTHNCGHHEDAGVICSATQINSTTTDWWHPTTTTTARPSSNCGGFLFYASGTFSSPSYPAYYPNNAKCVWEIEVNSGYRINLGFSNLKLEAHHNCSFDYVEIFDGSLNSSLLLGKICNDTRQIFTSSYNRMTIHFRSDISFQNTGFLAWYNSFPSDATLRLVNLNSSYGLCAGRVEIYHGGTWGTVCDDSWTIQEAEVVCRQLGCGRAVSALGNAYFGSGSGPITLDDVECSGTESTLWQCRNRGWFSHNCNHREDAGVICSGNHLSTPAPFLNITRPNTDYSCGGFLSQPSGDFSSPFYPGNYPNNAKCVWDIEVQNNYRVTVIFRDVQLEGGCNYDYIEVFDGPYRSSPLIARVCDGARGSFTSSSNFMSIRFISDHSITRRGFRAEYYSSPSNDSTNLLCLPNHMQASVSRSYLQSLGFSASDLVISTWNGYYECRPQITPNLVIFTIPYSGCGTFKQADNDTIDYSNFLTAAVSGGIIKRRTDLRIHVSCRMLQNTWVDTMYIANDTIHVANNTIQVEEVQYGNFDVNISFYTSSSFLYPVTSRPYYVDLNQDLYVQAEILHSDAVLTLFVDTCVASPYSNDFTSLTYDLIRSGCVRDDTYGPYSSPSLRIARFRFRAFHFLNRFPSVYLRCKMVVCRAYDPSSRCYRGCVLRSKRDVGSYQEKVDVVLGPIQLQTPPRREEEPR
Protocol: For the peptide binding studies we used, unless otherwise indicated, 20 μg/ml peptide in a total volume of 100 μl (dilution in coating buffer, 100 mM carbonate buffer, pH 9.6) for the coating of high affinity ELISA plates (Microlon, Fluotrac 600; Greiner). When immobilizing rDMBT1, purified, partially purified DMBT1 or substances to be tested, we applied serial dilutions in coating buffer onto the plates. Coating was done at 4° C. for 16 h and was followed by three washes with PBS-T with 1 mM CaCl2 (PBS-TC). For the analysis of bacterial binding to immobilized peptides or protein, we incubated the wells with 100 μl bacterial solution at 37° C. for 2 h. After removal of unbound bacteria, 100 μl of SYTO-9 solution (Molecular Probes), which is a cell-permeable fluorescent DNA dye, was added, plates were incubated in the dark for 15 min and after three washes with PBS-TC, fluorescence was measured by determination of the emission at 535 nm with a microtiter plate reader (488 n=excitation; Fluostar Galaxy, BMG Laboratories). DNA binding to immobilized DMBT1 was analyzed by using the same plasmid (LPS-free preparation) as used for the competitive aggregation and transfection assays (see below). Bound DNA was detected analogous to detection of bacteria except for using SYTQ-13 as dye. […]

[2] = target: T2, DMBT1pbs1 (Homo sapiens, UniProt Q9UGM3); format: binding; parameters: key: +++: no difference in aggregation compared to reference; ++: moderate inhibition of aggregation over the entire time course or maximal aggregation delayed by 1-5-min compared to reference; +: strong inhibition of aggregation over the entire time course or maximal aggregation delayed by 5-10 min compared to reference; −: complete inhibition of aggregation after 10 min; details: pH co
T2 construct: purchased Eurogentec, Belgium
Protocol: Streptococcus mutans (Ingbritt), Streptococcus gordonii (HG 222 and DSM20568), Escherichia coli (F7 and OM36-1), and Helicobacter pylori (ATCC 43504) were gown and processed as described earlier. Salmonella typhimurium (strain SF1399: wild type; strain SF1195: Rc chemotype; strain SF1567: Rd1 chemotype; strain SF1398: Re chemotype) were kindly provided by Dr. Ben Appelmelk from the Free University of Amsterdam, The Netherlands, and were grown and processed as previously described for E. coli. The bacteria were diluted in the buffers depicted previously to a final OD700 of 0.5 or 1.0 corresponding to about 0.5 and 1.0×10^9 cells/ml respectively.
For quantitative measurements of bacterial aggregation, we added 200 μl peptide stock solution (1 mg/ml in 10% DMSO) diluted with 300 μl TBS containing 0.1% v/v Tween 20 and 1 mM CaCl2 (TBS-TC) to 500 μl of the respective bacterial suspensions to obtain final peptide concentrations of […]. As controls, we used bacterial suspensions, to which 200 μl 10% (v/v %) DMSO in H2O and 300 μl TBS-TC were added. Bacterial aggregation was monitored by measuring the optical density at 700 nm in intervals of 1 min for 1 h in a spectrophotometer (UVICON 930, Kontron Instruments). For the semi-quantitative high-throughput competition assays, we first determined the allowed pH range for DMBT1pbs1-mediated aggregation of S. gordonii and E. coli by using TBS-TC adjusted with either HCl or NaOH. […] For monitoring competitive effects, we preincubated 20 μl of the DMBT1pbs1 stock solution (20 μg) with 20 μl of the respective substance solutions in 48-well microtiter plates at room temperature (RT) for 2 min. As reference served 20 μl 10% (v/v) DMSO solution in H2O mixed with 20 μl of the solvents of the respective substances. Afterwards, 100 μl of S. gordonii or E. coli (resuspended in TBS-TC or TBS-T, respectively, for the calcium-free assays) solution was added simultaneously to each well using a multichannel pipette. Bacterial aggregation was compared to the reference by visual inspection over a time course of 10 min. The scoring system was: (+++) no difference in aggregation compared to reference. (++) moderate inhibition of aggregation over the entire time course or maximal aggregation delayed by 1-5-min compared to reference; (+) strong inhibition of aggregation over the entire time course or maximal aggregation delayed by 5-10 min compared to reference; (−) complete inhibition of aggregation after 10 min. Each experiment was at least done in triplicate.
Sucrose, maltose, dextrose, and the various salts tested were standard reagents obtained from Merck or Sigma. […] The following substances were obtained from Sigma with catalogue numbers in brackets: heparansulfate (H-7640), chondroitinsulfate B (C-3788), azoxymethane (A-9517), N-nitrosodiethlylamine (N-0258), streptococcus sanguis LTA (L-3765), Staphylococcus aureus LTA (L-2515), Escherichia coli LPS (L-3012), Klebsiella pneumoniae LPS (L-1770), Salmonella typhimurium LPS (L-6511), Salmonella minnesota LPS (chemotype Rd1; L-9391), L-α-phosphatidylcholine (P-279), CUROSURF™ with 80 mg/ml phospholipids from pig surfactant (54 mg/ml phosphatidylcholine and 30-5 mg/ml D-palmitoylphosphatidylcholine; overall: 99% polar phospholipids and 1% proteins) was obtained from Dey (Napa; Italy), and sIgA was purchased from Sigma. The dNTPs and the dNTP-Mix were from Roche Diagnostics. The DNA used in all experiments was the 4.7-kb plasmid pEGFP-N1 from Clontech.

[3] = target: T3, human rDMBT1 (Homo sapiens, UniProt Q9UGM3, G1295S/L1336F/T649M); assay: Binding of human rDMBT1 to immobilized DSS and degraded lambda carrageenan; details: rDMBT1 10 μg/ml; immobilized substance
T3 construct: made in house; purified from culture supernatant
T3 sequence (Q9UGM3 20-2413 T649M/G1295S/L1336F): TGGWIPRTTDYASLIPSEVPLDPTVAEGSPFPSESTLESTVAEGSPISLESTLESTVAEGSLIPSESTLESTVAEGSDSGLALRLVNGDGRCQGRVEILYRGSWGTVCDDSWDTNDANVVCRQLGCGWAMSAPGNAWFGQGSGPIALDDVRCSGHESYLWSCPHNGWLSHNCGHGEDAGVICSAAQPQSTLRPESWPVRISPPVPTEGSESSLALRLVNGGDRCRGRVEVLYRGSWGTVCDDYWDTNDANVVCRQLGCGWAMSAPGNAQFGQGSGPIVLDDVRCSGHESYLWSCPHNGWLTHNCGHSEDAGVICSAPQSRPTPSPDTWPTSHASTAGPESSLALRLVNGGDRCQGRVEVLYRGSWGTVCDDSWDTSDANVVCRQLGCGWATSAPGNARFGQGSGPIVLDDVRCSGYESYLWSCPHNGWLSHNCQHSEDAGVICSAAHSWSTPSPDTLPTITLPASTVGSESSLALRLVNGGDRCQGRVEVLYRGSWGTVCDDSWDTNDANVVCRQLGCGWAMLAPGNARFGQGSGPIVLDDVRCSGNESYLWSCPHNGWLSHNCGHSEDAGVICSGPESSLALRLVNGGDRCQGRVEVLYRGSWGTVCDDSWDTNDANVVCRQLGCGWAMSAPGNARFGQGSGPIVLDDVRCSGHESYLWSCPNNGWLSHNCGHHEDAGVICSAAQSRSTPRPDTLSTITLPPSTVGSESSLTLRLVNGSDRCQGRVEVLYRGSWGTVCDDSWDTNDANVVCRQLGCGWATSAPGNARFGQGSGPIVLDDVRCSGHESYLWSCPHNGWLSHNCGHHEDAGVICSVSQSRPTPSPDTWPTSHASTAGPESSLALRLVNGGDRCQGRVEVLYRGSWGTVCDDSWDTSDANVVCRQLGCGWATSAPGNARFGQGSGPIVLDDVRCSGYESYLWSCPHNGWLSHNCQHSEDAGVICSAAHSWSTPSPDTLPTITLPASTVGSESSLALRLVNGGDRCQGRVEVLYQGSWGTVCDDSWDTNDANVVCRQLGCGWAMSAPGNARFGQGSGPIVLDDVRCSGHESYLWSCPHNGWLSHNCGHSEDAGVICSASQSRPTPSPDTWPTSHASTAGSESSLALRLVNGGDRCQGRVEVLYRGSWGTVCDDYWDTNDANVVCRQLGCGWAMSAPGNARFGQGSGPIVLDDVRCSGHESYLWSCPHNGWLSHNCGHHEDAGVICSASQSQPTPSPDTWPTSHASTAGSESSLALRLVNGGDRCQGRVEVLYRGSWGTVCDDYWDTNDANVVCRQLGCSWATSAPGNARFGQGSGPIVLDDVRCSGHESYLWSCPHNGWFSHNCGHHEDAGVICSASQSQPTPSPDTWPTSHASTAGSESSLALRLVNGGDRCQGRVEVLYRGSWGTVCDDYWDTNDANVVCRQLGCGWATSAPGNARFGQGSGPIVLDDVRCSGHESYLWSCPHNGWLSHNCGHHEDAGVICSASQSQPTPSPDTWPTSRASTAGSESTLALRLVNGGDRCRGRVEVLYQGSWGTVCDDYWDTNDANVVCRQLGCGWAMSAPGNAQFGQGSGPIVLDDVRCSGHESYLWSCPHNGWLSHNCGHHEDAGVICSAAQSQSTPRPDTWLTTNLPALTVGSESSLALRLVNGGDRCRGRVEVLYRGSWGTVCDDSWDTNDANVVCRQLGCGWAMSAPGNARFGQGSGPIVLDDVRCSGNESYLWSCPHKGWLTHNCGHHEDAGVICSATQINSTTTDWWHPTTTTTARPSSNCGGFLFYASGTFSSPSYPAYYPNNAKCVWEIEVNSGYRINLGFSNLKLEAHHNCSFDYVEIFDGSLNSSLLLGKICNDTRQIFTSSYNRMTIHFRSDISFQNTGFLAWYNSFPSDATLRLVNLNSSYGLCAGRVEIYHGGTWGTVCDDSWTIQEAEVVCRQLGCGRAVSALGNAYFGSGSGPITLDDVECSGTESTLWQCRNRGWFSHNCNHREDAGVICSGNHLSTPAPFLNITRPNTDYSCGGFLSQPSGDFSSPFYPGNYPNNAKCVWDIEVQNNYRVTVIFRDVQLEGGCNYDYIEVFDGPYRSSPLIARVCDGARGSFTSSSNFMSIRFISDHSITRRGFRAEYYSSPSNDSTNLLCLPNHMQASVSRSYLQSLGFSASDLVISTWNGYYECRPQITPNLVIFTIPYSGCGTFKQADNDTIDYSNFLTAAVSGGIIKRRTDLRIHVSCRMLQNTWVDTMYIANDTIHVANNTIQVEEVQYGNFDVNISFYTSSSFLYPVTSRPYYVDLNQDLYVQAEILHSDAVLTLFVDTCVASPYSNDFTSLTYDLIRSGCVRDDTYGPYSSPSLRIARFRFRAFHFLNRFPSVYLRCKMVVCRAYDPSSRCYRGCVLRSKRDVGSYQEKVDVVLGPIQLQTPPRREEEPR
Protocol: DSS was serially diluted in coating buffer (100 mM carbonate buffer, pH 9.6) to obtain final concentrations of 2.5% to 0.02% (w/v). One hundred μl of the samples were applied onto ELISA plates (Microlon, F-Form; Greiner, Germany) and coating was done at 4° C. for 16 h. Acid hydrolyzed and pH-adjusted lambda carrageenan was serially diluted with the solvent (approximately 50 mM HCl and 50 mM NaOH) to obtain concentrations ranging from 2.8% to 0.0055% […] and coating of ELISA plates was done at 37° C. for 2 h. After coating and three washes with TBS containing 0.1% (v/v) Tween 20 (TBS-T), rDMBT1 (10 μg/ml in TBS-T) was added to each well and incubated at 37° C. for 1 h. The wells were then washed five times with 200 μl TBS-T, incubated at 37° C. for 1 h with the DMBT1-specific mouse monoclonal antibody anti(A2) gp-340 (Hyb213-06; Antibody-Shop; dilution 1:10,000 in TBS-T), washed again five-times with TBS-T, and incubated at 37° C. for 1 h with a rabbit anti-mouse IgG-HRP conjugate (Jackson; dilution 1:10,000 in TBS-T). Subsequent to five washes with TBS-T, 150 μl substrate (125 μg/ml 3,3′,5′-Tetramethyl-benzidine; in 0.1 M citrate buffer pH 4.5 with 0.05% (v/v) H2O2) were added, and after incubation at RT for 10-15 min the reaction was stopped by addition of […] 2 M HCl. The intensity of the dye reaction was measured at 450 nm in an ELISA reader (EL800; Bio-Tec Instruments Inc.). […]

[4] = target: T4, human recombinant DMBT1 (rDMBT1) (Homo sapiens, UniProt Q9UGM3, G1295S/L1336F/T649M); assay: Turbidometric competition assay, rDMBT1-mediated Streptococcus gordonii aggregation; format: binding; details: 0.32% to 2.50% (w/v) DSS; 0.28% to 0.84% degraded carrageenan; rDMBT1 15 μg/ml
T4 construct: made in house; purified from culture supernatant
Protocol: (§1) Streptococcus gordonii (strain: […]) was cultured under anaerobic conditions as described before^17, harvested by centrifugation at 3,000 g, washed twice with PBS containing 10 mM EDTA and once with PBS and finally resuspended in PBS to a final OD700 of 2.0 corresponding to about 2.0×10^9 cells/ml, respectively.
(§2) Competition assays were carried out in a final volume of 500 μl at RT. Streptococcus gordonii (250 μl in PBS) was mixed with 100 μl synthetic peptide DMBT1-SRCRP2 diluted 1:1 in PBS (final concentration in the assay: 100 μg/ml) or 100 μl purified rDMBT1 in PBS (final concentration in the assay: 15 μg/ml) and 150 μl of the respective competitor stock solutions, so that the final concentrations ranged from 0.32% to 2.50% (w/v) DSS and 0.28% to 0.84% […] degraded carrageenan. Samples with 0.0% competitor served as controls. The samples were placed in a spectrophotometer (Anthelie; SECOMAN, France) and the OD700-value was measured in intervals of 3 minutes. Each experiment was at least done in triplicate. For the DSS competition studies, we used the same DSS as in the animal experiments (Mr=36-50 kDa; ICN Biomedicals Aurora). High molecular weight lambda carrageenan was obtained from Sigma (Taufkirchen; Germany). […]

[5] = target: T5, rDMBT1 binding to HIV-gp120 (Homo sapiens, UniProt Q9UGM3, G1295S/L1336F/T649M); assay: Effects of DSS and dextran on rDMBT1 binding to HIV-gp120; details: 100 μg/ml DSS or dextran; rDMBT1 2 μg/ml; gp120 1 μg/ml
T5 construct: made in house; host or cells: rDMBT1 from T-REx-CHO
Description: Values are means of five independent experiments.

[6] = target: T6, DMBT1-SRCRP2 (Homo sapiens, UniProt Q9UGM3); assay: Turbidometric competition assay, DMBT1-SRCRP2-mediated bacterial aggregation; format: binding; details: 0.32% to 2.50% (w/v) DSS; 0.28% to 0.84% degraded carrageenan; peptide 100 μg/ml
T6 construct: purity >85%); purchased Eurogentec (Belgium); host or cells: chemical synthesis
Protocol: as §1, §2

Row | Substance | binding to DMBT1 [1] | Aggregation of E. coli ([2]; substance 10-50 mg/ml) | Aggregation of S. gordonii ([2]; substance 10-50 mg/ml) | direct interaction with human DMBT1 (competition and binding studies in vitro) [3] | Inhibitory effects on rDMBT1-mediated Streptococcus gordonii aggregation [4] | inhibition of rDMBT1 binding to immobilized HIV-gp120 [5] | Inhibitory effects on bacterial aggregation mediated by DMBT1-SRCRP2 [6] | Aggregation of E. coli ([2]; substance 0.05 mg/ml) | Aggregation of S. gordonii ([2]; substance 0.05 mg/ml) | Aggregation of S. gordonii ([2]; substance 0.1 mg/ml)
1 | lipoteichoic acid [LTA] | showed binding to DMBT1 |  |  |  |  |  |  |  |  | 
2 | Dextran sulfate sodium [Dextran sulfate sodium (DSS)] |  | − | − | directly interacted | Inhibitory effects | exerted an inhibitory effect | Inhibitory effects |  |  | 
3 | Degraded lambda-carrageenan |  |  |  | directly interacted | Inhibitory effects |  | Inhibitory effects | +++ | ++ | +
4 | lipopolysaccharide [LPS] | showed binding to DMBT1 |  |  |  |  |  |  |  |  | 
